The source made the active and inactive calls. How the calls were made is not given here.

The assay deals with Glycogen synthase kinase-3 beta splice variant X1 (Bos taurus) (UniProt A0A059UE90). Description: Inhibition of bovine cerebral TPK1 assessed as reduction in P-GS1 phosphorylation using [32gammaP]ATP incubated for 2 hrs by liquid scintillation counting method.
Regarding `CC(=O)OCCN1CCN(c2ccc([C@H]3CN(c4nc(-c5ccncc5F)cc(=O)n4C)CCN3)cc2)CC1`, the inhibition entry is “Active”.

With `Cn1c(N2CCO[C@@H](c3ccc(OCCN4CCCCC4)cc3)C2)nc(-c2ccncc2F)cc1=O`, the inhibition entry was “Active”.

For `COCCN(c1ccc([C@H]2CN(c3nc(-c4ccncc4F)cc(=O)n3C)CCO2)cc1)C1CCCCC1`, the inhibition result is “Active”.

Turning to `CCCCOc1ccc(-c2ccc([C@H]3CN(c4nc(-c5ccncc5F)cc(=O)n4C)CCN3)cc2)cc1`, the inhibition result is “Active”.

For `Cn1c(N2CCO[C@@H](c3ccc(NC(=O)CN4CCN(c5ccccc5)CC4)cc3)C2)nc(-c2ccncc2F)cc1=O`, the inhibition entry was “Active”.

With `Cn1c(N2CCO[C@@H](c3ccc(N4CC[C@@H](O)C4)cc3)C2)nc(-c2ccncc2F)cc1=O`, the inhibition entry is “Active”.

As to `Cn1c(N2CCN[C@@H](c3ccc(-c4ccc(OCC5CC5)cc4)cc3)C2)nc(-c2ccncc2F)cc1=O`, the inhibition entry is “Active”.

As for `Cn1c(N2CCO[C@@H](c3ccc(C(=O)NCCO)cc3)C2)nc(-c2ccncc2F)cc1=O`, the inhibition entry was “Active”.

For the compound `CC(C)N1CCN(c2ccc([C@H]3CN(c4nc(-c5ccncc5F)cc(=O)n4C)CCO3)cc2)CC1`, the inhibition entry was “Active”.

For `COc1ccc(NC(=O)C2CC2)cc1[C@H]1CN(c2nc(-c3ccncc3F)cc(=O)n2C)CCO1`, the inhibition entry was “Active”.

On to `CN(C)c1cccc2c(S(=O)(=O)Nc3ccc([C@H]4CN(c5nc(-c6ccncc6F)cc(=O)n5C)CCO4)cc3)cccc12`, for which the inhibition entry was “Active”.

As to `CC(=O)N(c1ccc([C@H]2CN(c3nc(-c4ccncc4F)cc(=O)n3C)CCO2)cc1)C1CCCCC1`, the inhibition result is “Active”.

Take `CN(c1ccc([C@H]2CN(c3nc(-c4ccncc4F)cc(=O)n3C)CCO2)cc1)C12CC3CC(CC(C3)C1)C2`: the inhibition entry is “Active”.

`Cn1c(N2CCN[C@@H](c3ccc(-c4ccc(S(C)(=O)=O)cc4)cc3)C2)nc(-c2ccncc2F)cc1=O`: the inhibition result is “Active”.

`CCN(CC)c1ccc([C@H]2CN(c3nc(-c4ccncc4F)cc(=O)n3C)CCO2)cc1`: the inhibition entry is “Active”.

As to `Cn1c(N2CCO[C@@H](c3ccc(Nc4cccnc4)cc3)C2)nc(-c2ccncc2F)cc1=O`, the inhibition result was “Active”.

With `Cn1c(N2CCO[C@@H](c3cccc(NC(=O)C4CC4)c3)C2)nc(-c2ccncc2F)cc1=O`, the inhibition result is “Active”.

In the case of `CCOC(=O)Nc1ccc([C@H]2CN(c3nc(-c4ccncc4F)cc(=O)n3C)CCO2)cc1`, the inhibition entry was “Active”.

In the case of `Cn1c(N2CCO[C@@H](c3ccc(NC(=O)CN4CCCC4)cc3)C2)nc(-c2ccncc2F)cc1=O`, the inhibition result was “Active”.

On to `CN1CCN(c2ccc([C@H]3CN(c4nc(-c5ccncc5F)cc(=O)n4C)CCO3)cc2)CC1`, for which the inhibition entry is “Active”.

In the case of `Cn1c(N2CCNC(c3ccc(N4CCNCC4)cc3)C2)nc(-c2ccncc2F)cc1=O` (centres undefined), the inhibition entry is “Active”.

As to `CN(C)CCOc1ccc([C@H]2CN(c3nc(-c4ccncc4F)cc(=O)n3C)CCO2)cc1`, the inhibition result was “Active”.

Regarding `Cn1c(N2CCOC(c3ccc4c(c3)C(C)(C)CC(=O)N4)C2)nc(-c2ccncc2F)cc1=O` (racemic), the inhibition entry is “Active”.

As to `Cn1c(N2CCO[C@@H](c3cccc(N)c3)C2)nc(-c2ccncc2F)cc1=O`, the inhibition entry is “Active”.

Take `Cn1c(N2CCNC(c3ccc(-c4ncon4)cc3)C2)nc(-c2ccncc2F)cc1=O` (centres undefined): the inhibition entry was “Active”.

On to `CN(c1ccc([C@H]2CN(c3nc(-c4ccncc4F)cc(=O)n3C)CCO2)cc1)C1CCCCC1`, for which the inhibition entry is “Active”.

For `Cn1c(N2CCO[C@@H](c3ccc(NS(=O)(=O)CCl)cc3)C2)nc(-c2ccncc2F)cc1=O`, the inhibition entry was “Active”.

With `Cn1c(N2CCO[C@@H](c3ccc(N(CC(F)(F)F)CC(F)(F)F)cc3)C2)nc(-c2ccncc2F)cc1=O`, the inhibition entry was “Active”.

Turning to `Cn1c(N2CCO[C@@H](c3ccc(-c4ncon4)cc3)C2)nc(-c2ccncc2F)cc1=O`, the inhibition result is “Active”.

Regarding `COc1ccc(N)cc1[C@H]1CN(c2nc(-c3ccncc3F)cc(=O)n2C)CCO1`, the inhibition entry is “Active”.

For `Cn1c(N2CCO[C@@H](c3ccc(NS(=O)(=O)Cc4ccccc4)cc3)C2)nc(-c2ccncc2F)cc1=O`, the inhibition result is “Active”.

Take `CCN(CC)C(=O)Nc1ccc([C@H]2CN(c3nc(-c4ccncc4F)cc(=O)n3C)CCO2)cc1`: the inhibition entry was “Active”.

Regarding `Cn1c(N2CCO[C@@H](c3ccc(CN4CCOCC4)cc3)C2)nc(-c2ccncc2F)cc1=O`, the inhibition entry was “Active”.

For the compound `Cn1c(N2CCN[C@@H](c3ccc(-c4ccc(Cl)c(Cl)c4)cc3)C2)nc(-c2ccncc2F)cc1=O`, the inhibition result is “Active”.

Consider `CN(C)[C@@H]1CCN(c2ccc([C@H]3CN(c4nc(-c5ccncc5F)cc(=O)n4C)CCO3)cc2)C1`, for which the inhibition entry is “Active”.

Take `Cn1c(N2CCO[C@@H](c3ccc(OCCN4CCNCC4)cc3)C2)nc(-c2ccncc2F)cc1=O`: the inhibition result is “Active”.

Turning to `Cn1c(N2CCO[C@@H](c3ccc(OC(F)(F)F)cc3)C2)nc(-c2ccncc2F)cc1=O`, the inhibition result is “Active”.

`Cn1c(N2CCN[C@@H](c3ccc(N4CCC(N5CCCCC5)CC4)cc3)C2)nc(-c2ccncc2F)cc1=O`: the inhibition entry was “Active”.

Take `Cn1c(N2CCO[C@@H](c3ccc(OCCCN4CCOCC4)cc3)C2)nc(-c2ccncc2F)cc1=O`: the inhibition entry is “Active”.

In the case of `CC(C)c1ccc([C@H]2CN(c3nc(-c4ccncc4F)cc(=O)n3C)CCO2)cc1`, the inhibition result was “Active”.

Turning to `CN(C)c1ccc([C@H]2CN(c3nc(-c4ccncc4F)cc(=O)n3C)CCO2)cc1`, the inhibition result is “Active”.

Turning to `Cc1nc(-c2ccc([C@H]3CN(c4nc(-c5ccncc5F)cc(=O)n4C)CCO3)cc2)no1`, the inhibition entry is “Active”.

Regarding `Cn1c(N2CCO[C@@H](c3ccc(C(=O)N4CCCCC4)cc3)C2)nc(-c2ccncc2F)cc1=O`, the inhibition result was “Active”.

`CC(C)N1CCN(c2ccc([C@H]3CN(c4nc(-c5ccncc5F)cc(=O)n4C)CCN3)cc2)CC1`: the inhibition entry was “Active”.

For `Cn1c(N2CCO[C@@H](c3c(F)cccc3Cl)C2)nc(-c2ccncc2F)c(F)c1=O`, the inhibition result was “Active”.

Take `COc1ccc(C#N)cc1[C@H]1CN(c2nc(-c3ccncc3F)cc(=O)n2C)CCO1`: the inhibition result was “Active”.

As for `Cn1c(N2CCOC(c3ccc4c(c3)NC(=O)CO4)C2)nc(-c2ccncc2F)cc1=O` (racemic), the inhibition entry was “Active”.

For the compound `Cn1c(N2CCO[C@@H](c3ccc(NC4CCc5ccccc54)cc3)C2)nc(-c2ccncc2F)cc1=O` (some centres undefined), the inhibition result is “Active”.

For `Cn1c(N2CCN[C@@H](c3ccc(N4CCC(O)CC4)cc3)C2)nc(-c2ccncc2F)cc1=O`, the inhibition result was “Active”.

Regarding `CN1CCC(Oc2ccc([C@H]3CN(c4nc(-c5ccncc5F)cc(=O)n4C)CCO3)cc2)CC1`, the inhibition result is “Active”.

As to `Cn1c(N2CCO[C@@H](c3ccc(N4CC[C@H](N5CCOCC5)C4)cc3)C2)nc(-c2ccncc2F)cc1=O`, the inhibition entry is “Active”.

`Cn1c(N2CCOC(c3ccc(Br)cc3)C2)nc(-c2ccncc2F)cc1=O` (centres undefined): the inhibition entry is “Active”.

For the compound `Cn1c(N2CCN[C@H](c3ccc(C#N)cc3)C2)nc(-c2ccncc2F)cc1=O`, the inhibition entry was “Active”.

As for `Cn1c(N2CCO[C@@H](c3ccc(N4CCCCC4)cc3)C2)nc(-c2ccncc2F)cc1=O`, the inhibition result is “Active”.

Consider `Cn1c(N2CCO[C@@H](c3ccccc3)C2)nc(-c2ccncc2F)cc1=O`, for which the inhibition entry was “Active”.

Take `CN(c1ccc([C@H]2CN(c3nc(-c4ccncc4F)cc(=O)n3C)CCO2)cc1)C1CCCCCC1`: the inhibition result is “Active”.

Turning to `Cn1c(N2CCOC(c3cccc(-c4nccs4)c3)C2)nc(-c2ccncc2F)cc1=O` (centres undefined), the inhibition result was “Active”.

Take `Cn1c(N2CCO[C@@H](c3ccc(OCCCN4CCCC4)cc3)C2)nc(-c2ccncc2F)cc1=O`: the inhibition entry is “Active”.

On to `Cn1c(N2CCO[C@@H](c3ccc(NC4C5CC6CC(C5)CC4C6)cc3)C2)nc(-c2ccncc2F)cc1=O` (some centres undefined), for which the inhibition result was “Active”.

Consider `CN1CCC2(CCN(c3ccc([C@H]4CN(c5nc(-c6ccncc6F)cc(=O)n5C)CCN4)cc3)CC2)C1`, for which the inhibition entry was “Active”.

As for `Cn1c(N2CCO[C@@H](c3ccc(-c4nnco4)cc3)C2)nc(-c2ccncc2F)cc1=O`, the inhibition result was “Active”.

Consider `Cn1c(N2CCN[C@@H](c3ccc(N4CCN(CCO)CC4)cc3)C2)nc(-c2ccncc2F)cc1=O`, for which the inhibition result is “Active”.

Turning to `Cn1c(N2CCN[C@@H](c3ccc(N4CC[C@H](C(N)=O)C4)cc3)C2)nc(-c2ccncc2F)cc1=O`, the inhibition entry was “Active”.

Consider `Cn1c(N2CCO[C@@H](c3ccc([N+](=O)[O-])cc3)C2)nc(-c2ccncc2F)cc1=O`, for which the inhibition entry was “Active”.

Consider `CN(C)C1CCN(c2ccc([C@H]3CN(c4nc(-c5ccncc5F)cc(=O)n4C)CCO3)cc2)CC1`, for which the inhibition result is “Active”.

For the compound `CCOc1ccc(-c2ccc([C@H]3CN(c4nc(-c5ccncc5F)cc(=O)n4C)CCN3)cc2)cc1`, the inhibition result was “Active”.

Turning to `CN(C)S(=O)(=O)c1ccc([C@H]2CN(c3nc(-c4ccncc4F)cc(=O)n3C)CCO2)cc1`, the inhibition result is “Active”.

With `Cn1c(N2CCO[C@@H](c3ccc(OCC4CC4)cc3)C2)nc(-c2ccncc2F)cc1=O`, the inhibition entry was “Active”.

For `Cn1c(N2CCO[C@@H](c3ccc(N4CCCC4)cc3)C2)nc(-c2ccncc2F)cc1=O`, the inhibition result was “Active”.

As to `CC(=O)c1ccc([C@H]2CN(c3nc(-c4ccncc4F)cc(=O)n3C)CCO2)cc1`, the inhibition result is “Active”.

Turning to `CN(c1ccc([C@H]2CN(c3nc(-c4ccncc4F)cc(=O)n3C)CCN2)cc1)C1CCCCC1`, the inhibition result is “Active”.

For the compound `CN(c1ccc([C@H]2CN(c3nc(-c4ccncc4F)cc(=O)n3C)CCO2)cc1)C1CCCC1`, the inhibition result is “Active”.

For the compound `Cc1nc(-c2ccc(C3CN(c4nc(-c5ccncc5F)cc(=O)n4C)CCN3)cc2)no1` (centres undefined), the inhibition result is “Active”.

For the compound `Cn1c(N2CCO[C@@H](c3ccc(NC(=O)CN4CCCCC4)cc3)C2)nc(-c2ccncc2F)cc1=O`, the inhibition entry is “Active”.

(Values after ChEMBL document CHEMBL3727346, “6-(pyridinyl)-4-pyrimidone derivates as tau protein kinase 1 inhibitors” (2011).)
